Structures can show the parent of a compound that is named as a salt. Where two headings read alike, the source gives them in different places.
Test system: Phosphorylated Ribosomal Protein S6 (RPS6) in THP-1 cells
Assay: THP-1 RPS6 ELISA Assay
Type: cell-based, Human
Settings: THP-1 cells, 10 nM MCP-1, read-out: PI3Kγ_THP1_RPS6_ELISA IC50
Procedure: To measure the Phosphorylated Ribosomal Protein S6 (RPS6) in cell lysates, THP-1 cells (Human Acute Monocytic Leukemia) are purchased from ATCC (Manassas, Va.) and maintained in RPMI with 10% FBS (Gibco/Life Technologies, Carlsbad, Calif.). For the assay, THP-1 cells are serum starved overnight in RPMI, then plated in RPMI (2×10^5 cells/well in 90 μL) into 96-well flat-bottom tissue culture treated plates (Corning, Corning, N.Y.), in the presence or absence of a concentration range of test compounds. Covered plates are incubated for 2 hours at 37° C., 5% CO2 then treated with or without 10 nM MCP-1(MYBioSource, San Diego, Calif.) for 15 minutes at 37° C., 5% CO2. Plates are centrifuged at 1600 RPM and supernatants are removed. Cells are lysed in Lysis Buffer (Cell Signaling, Danvers, Mass.) with Protease Inhibitor (Calbiochem/EMD, Germany), PMSF (Sigma, St Louis Mo.), HALTS (Thermo Fisher, Rockford, Ill.) for 30 min on wet ice. Cell lysates are frozen at −80 OC before testing. The lysates are tested in the Human/Mouse/Rat Phospho-RPS6 ELISA (R&D Systems, Inc. Minn, Minn.). The plate is measured using a microplate reader (SpectraMax M5—Molecular Devices, LLC Sunnyvale, Calif.) set to 450 nm with a wavelength correction of 540. IC50 determination is performed by fitting the curve of inhibitor percent inhibition versus the log of the inhibitor concentration using the GraphPad Prism 5.0 software.

Structure (SMILES)	IC50 (Homo sapiens, Table A1) [µM]	also measured
COCC#Cc1nc(-c2cc(C(O)(C(N)=O)C(F)(F)F)ccc2C)cnc1N (stereo not shown) [Example 47, 2-(3-(5-amino-6-(3-methoxyprop-1-ynyl)pyrazin-2-yl)-4-methylphenyl)-3,3,3-trifluoro-2-hydroxypropanamide trifluoroacetate]	–	IC50 (Homo sapiens, Table A2): < 0.1 µM
Cc1ccc(C(O)(C(N)=O)C(F)(F)F)cc1-c1cnc(N)c(-n2cccn2)n1 (stereo not shown) [Example 93, 2-(3-(5-Amino-6-(1H-pyrazol-1-yl)pyrazin-2-yl)-4-methylphenyl)-3,3,3-trifluoro-2-hydroxypropanamide]	–	IC50 (Homo sapiens, Table A3): < 0.1 µM
Cc1ccc(C(O)(C(N)=O)C(F)(F)F)cc1-c1cnc(N)c(C(=O)NCC(O)C(F)(F)F)n1 (single isomer, unassigned) [Example 43B, 3-amino-6-(5-(3-amino-1,1,1-trifluoro-2-hydroxy-3-oxopropan-2-yl)-2-methylphenyl)-N-(3,3,3-trifluoro-2-hydroxypropyl)pyrazine-2-carboxamide]	–	IC50 (Table A1): < 0.1 µM
Cc1ccc(C(O)(C(N)=O)C(F)(F)F)cc1-c1cnc(N)c(C(=O)Nc2ccnn2C)n1 (stereo not shown) [Example 106, 3-amino-6-(5-(3-amino-1,1,1-trifluoro-2-hydroxy-3-oxopropan-2-yl)-2-methylphenyl)-N-(1-methyl-1H-pyrazol-5-yl)pyrazine-2-carboxamide trifluoroacetate]	–	IC50 (Homo sapiens, Table A3): < 0.1 µM
Cc1ccc(C(O)(C(N)=O)C(F)(F)F)cc1-c1cnc(N)c(C#CC2(C)CCOCC2)n1 (stereo not shown) [Example 64, 2-(3-(5-amino-6-((4-methyltetrahydro-2H-pyran-4-yl)ethynyl)pyrazin-2-yl)-4-methylphenyl)-3,3,3-trifluoro-2-hydroxypropanamide]	–	IC50 (Homo sapiens, Table A2): < 0.1 µM
Cc1ccc(C(O)(C(N)=O)C(F)(F)F)cc1-c1cnc(N)c(-c2ccnc(CO)c2)n1 (stereo not shown) [Example 85, 2-(3-(5-amino-6-(2-(hydroxymethyl)pyridin-4-yl)pyrazin-2-yl)-4-methylphenyl)-3,3,3-trifluoro-2-hydroxypropanamide bistrifluoroacetate]	–	IC50 (Homo sapiens, Table A3): < 0.5 µM
Cc1ccc(C(O)(C(N)=O)C(F)(F)F)cc1-c1cnc(N)c(N2CCN(c3nccnc3C#N)CC2)n1 (stereo not shown) [Example 128, 2-(3-(5-amino-6-(4-(3-cyanopyrazin-2-yl)piperazin-1-yl)pyrazin-2-yl)-4-methylphenyl)-3,3,3-trifluoro-2-hydroxypropanamide trifluoroacetate]	–	IC50 (Homo sapiens, Table A4, cells given with + symbol): < 0.1 µM
CCNC(=O)c1nc(-c2cc(C(O)(C(N)=O)C(F)(F)F)ccc2C)cnc1N (stereo not shown) [Example 7, 3-Amino-6-(5-(3-amino-1,1,1-trifluoro-2-hydroxy-3-oxopropan-2-yl)-2-methylphenyl)-N-ethylpyrazine-2-carboxamide trifluoroacetate]	< 0.1	–
Cc1ccc(C(O)(C(N)=O)C(F)F)cc1-c1cnc(N)c(C(=O)NC2CCOCC2)n1 (stereo not shown) [Example 36, 3-amino-6-(5-(1-amino-3,3-difluoro-2-hydroxy-1-oxopropan-2-yl)-2-methylphenyl)-N-(tetrahydro-2H-pyran-4-yl)pyrazine-2-carboxamide]	< 0.1	–
Cc1ccc(C(O)(C(N)=O)C(F)F)cc1-c1cnc(N)c(C(=O)NC2CCC(F)(F)CC2)n1 (stereo not shown) [Example 34, 3-amino-6-(5-(1-amino-3,3-difluoro-2-hydroxy-1-oxopropan-2-yl)-2-methylphenyl)-N-(4,4-difluorocyclohexyl)pyrazine-2-carboxamide]	< 0.1	–
Cc1ccc(C(O)(C(N)=O)C(F)(F)F)cc1-c1cnc(N)c(C(=O)NC23CCC(C#N)(CC2)CC3)n1 (stereo not shown) [Example 25, 3-amino-6-(5-(3-amino-1,1,1-trifluoro-2-hydroxy-3-oxopropan-2-yl)-2-methylphenyl)-N-(4-cyanobicyclo[2.2.2]octan-1-yl)pyrazine-2-carboxamide trifluoroacetate]	< 0.1	–
Cc1ccc(C(O)(C(N)=O)C(F)(F)F)cc1-c1cnc(N)c(-c2ccc(B(O)O)cc2)n1 (stereo not shown) [Example 97, (4-(3-Amino-6-(5-(3-amino-1,1,1-trifluoro-2-hydroxy-3-oxopropan-2-yl)-2-methylphenyl)pyrazin-2-yl)phenyl)boronic acid]	–	IC50 (Homo sapiens, Table A3): < 0.5 µM
CNC(=O)C(O)(c1ccc(C)c(-c2cnc(N)c(-n3cncn3)n2)c1)C(F)(F)F (stereo not shown) [Example 94, 2-(3-(5-Amino-6-(1H-1,2,4-triazol-1-yl)pyrazin-2-yl)-4-methylphenyl)-3,3,3-trifluoro-2-hydroxy-N-methylpropanamide trifluoroacetate]	–	IC50 (Homo sapiens, Table A3): < 0.1 µM
Cc1ccc(C(O)(C(N)=O)C(F)(F)F)cc1-c1cnc(N)c(C(=O)NC(C)C)n1 (stereo not shown) [Example 5, 3-Amino-6-(5-(3-amino-1,1,1-trifluoro-2-hydroxy-3-oxopropan-2-yl)-2-methylphenyl)-N-isopropylpyrazine-2-carboxamide trifluoroacetate]	< 0.1	–
CC[C@@H](CC#N)NC(=O)c1nc(-c2cc(C(O)(C(N)=O)C(F)(F)F)ccc2C)cnc1N (stereo partly drawn) [Example 20, 3-amino-6-(5-(3-amino-1,1,1-trifluoro-2-hydroxy-3-oxopropan-2-yl)-2-methylphenyl)-N-((S)-1-cyanobutan-2-yl)pyrazine-2-carboxamide trifluoroacetate]	< 0.1	–
Cc1ccc(C(O)(C(N)=O)C(F)(F)F)cc1-c1cnc(N)c(C#Cc2ccccn2)n1 (stereo not shown) [Example 55, 2-(3-(5-amino-6-(pyridin-2-ylethynyl)pyrazin-2-yl)-4-methylphenyl)-3,3,3-trifluoro-2-hydroxypropanamide]	–	IC50 (Homo sapiens, Table A2): < 0.1 µM
Cc1ccc(C(O)(C(N)=O)C(F)(F)F)cc1-c1cnc(N)c(C(=O)NCC(C)(C)C#N)n1 (stereo not shown) [Example 15, 3-amino-6-(5-(3-amino-1,1,1-trifluoro-2-hydroxy-3-oxopropan-2-yl)-2-methylphenyl)-N-(2-cyano-2-methylpropyl)pyrazine-2-carboxamide trifluoroacetate]	< 0.1	–
Cc1ccc(C(O)(C(N)=O)C(F)(F)F)cc1-c1cnc(N)c(C(=O)NCC2(C#N)CCC2)n1 (stereo not shown) [Example 16, 3-amino-6-(5-(3-amino-1,1,1-trifluoro-2-hydroxy-3-oxopropan-2-yl)-2-methylphenyl)-N-((1-cyanocyclobutyl)methyl)pyrazine-2-carboxamide trifluoroacetate]	< 0.1	–
Cc1ccc(C(O)(C(N)=O)C(F)(F)F)cc1-c1cnc(N)c(C(=O)NC23CC(C#N)(C2)C3)n1 (stereo not shown) [Example 23, 3-amino-6-(5-(3-amino-1,1,1-trifluoro-2-hydroxy-3-oxopropan-2-yl)-2-methylphenyl)-N-(3-cyanobicyclo[1.1.1]pentan-1-yl)pyrazine-2-carboxamide trifluoroacetate]	< 0.1	–
Cc1ccc(C(O)(C(N)=O)C(F)(F)F)cc1-c1cnc(N)c(C(=O)NC2CC3CCC2O3)n1 (single isomer, unassigned) [Example 29, 3-amino-6-(5-(3-amino-1,1,1-trifluoro-2-hydroxy-3-oxopropan-2-yl)-2-methylphenyl)-N-(7-oxabicyclo[2.2.1]heptan-2-yl)pyrazine-2-carboxamide]	< 0.1	–
Cc1ccc(C(O)(C(N)=O)C(F)(F)F)cc1-c1cnc(N)c(C#Cc2cncn2C)n1 (stereo not shown) [Example 53, 2-(3-(5-amino-6-((1-methyl-1H-imidazol-5-yl)ethynyl)pyrazin-2-yl)-4-methylphenyl)-3,3,3-trifluoro-2-hydroxypropanamide]	–	IC50 (Homo sapiens, Table A2): < 0.5 µM
Cc1ccc(C(O)(CNC(=O)CF)C(F)(F)F)cc1-c1cnc(N)c(C(=O)NC(C)C)n1 (stereo not shown) [Example 40, 3-Amino-N-isopropyl-6-(2-methyl-5-(1,1,1,-trifluoro-3-(2-fluoroacetamido)-2-hydroxypropan-2-yl)phenyl)pyrazine-2-carboxamide trifluoroacetate]	< 0.5	–
COC(C)(C)CNC(=O)c1nc(-c2cc(C(O)(C(N)=O)C(F)(F)F)ccc2C)cnc1N (stereo not shown) [Example 21, 3-amino-6-(5-(3-amino-1,1,1-trifluoro-2-hydroxy-3-oxopropan-2-yl)-2-methylphenyl)-N-(2-methoxy-2-methylpropyl)pyrazine-2-carboxamide trifluoroacetate]	< 0.1	–
COC[C@H]1CCN1C(=O)c1nc(-c2cc(C(O)(C(N)=O)C(F)(F)F)ccc2C)cnc1N (stereo partly drawn) [Example 26, 2-(3-(5-amino-6-((R)-2-(methoxymethyl)azetidine-1-carbonyl)pyrazin-2-yl)-4-methylphenyl)-3,3,3-trifluoro-2-hydroxypropanamide]	< 0.5	–
COc1cc(C#Cc2nc(-c3cc(C(O)(C(N)=O)C(F)(F)F)ccc3C)cnc2N)cc(OC)c1 (stereo not shown) [Example 60, 2-(3-(5-amino-6-((3,5-dimethoxyphenyl)ethynyl)pyrazin-2-yl)-4-methylphenyl)-3,3,3-trifluoro-2-hydroxypropanamide]	–	IC50 (Homo sapiens, Table A2): < 0.1 µM

— patent publication US11046658B2, “Aminopyrazine derivatives as PI3K-γ inhibitors” (Incyte Corporation, priority 2018, dated 2021)
